Test results reported in paper PMC12325182, “Discovery of novel and potent celastrol derivatives as PRDX1 inhibitors for cancer therapy through structure-based virtual screening” (Frontiers in Pharmacology, 2025).

How the values were obtained:
Assay type in all cases: biochemical
EPHA1 = biological target: T1, EPHA1 (Homo sapiens, UniProt P21709); assay: Kinase selectivity assay; conditions: target EPHA1; read-out: CP1 IC50
T1 construct: ICE Biosciences (Beijing, China), ran the assays
Experimental: (§1) The selectivity of CP1 for PRDX1 was evaluated through kinase selectivity assays against other PRDX family members and a panel of kinases. The experiments were conducted by ICE Biosciences (Beijing, China).

FES = biological target: T2, FES (Homo sapiens, UniProt P07332); assay: Kinase selectivity assay; conditions: target FES; read-out: CP1 IC50
T2 construct: assay run by ICE Biosciences (Beijing, China)
Experimental: as §1

TYRO3 = biological target: T3, TYRO3 (Homo sapiens, UniProt Q06418); assay: Kinase selectivity assay; conditions: target TYRO3; read-out: CP1 IC50
T3 construct: ICE Biosciences (Beijing, China), a contract laboratory that ran the assay
Experimental: as §1

MERTK = MERTK (Homo sapiens, UniProt Q12866); assay: Kinase selectivity assay; conditions: target MERTK; read-out: CP1 IC50
Experimental: as §1

FGR = biological target: T4, FGR (Homo sapiens, UniProt P09769); assay: Kinase selectivity assay; conditions: target FGR; read-out: CP1 IC50
T4 construct: assay run by ICE Biosciences (Beijing, China)
T4 sequence (P09769 whole entry): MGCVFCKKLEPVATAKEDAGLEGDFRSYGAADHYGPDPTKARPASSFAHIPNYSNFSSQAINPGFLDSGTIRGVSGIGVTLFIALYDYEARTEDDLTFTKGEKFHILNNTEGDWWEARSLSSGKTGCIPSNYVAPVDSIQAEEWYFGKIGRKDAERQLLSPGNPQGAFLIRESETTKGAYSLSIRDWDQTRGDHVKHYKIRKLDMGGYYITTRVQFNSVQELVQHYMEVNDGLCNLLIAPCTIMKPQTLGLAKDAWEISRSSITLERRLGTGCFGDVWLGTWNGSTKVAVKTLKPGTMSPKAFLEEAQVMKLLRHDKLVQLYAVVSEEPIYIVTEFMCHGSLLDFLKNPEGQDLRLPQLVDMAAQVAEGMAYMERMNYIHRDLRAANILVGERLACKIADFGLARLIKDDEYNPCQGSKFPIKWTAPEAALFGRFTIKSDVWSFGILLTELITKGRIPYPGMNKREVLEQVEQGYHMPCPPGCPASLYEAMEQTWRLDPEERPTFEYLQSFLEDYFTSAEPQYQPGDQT
Experimental: as §1

PDGFRB = biological target: T5, PDGFRB (Homo sapiens, UniProt P09619); assay: Kinase selectivity assay; conditions: target PDGFRB; read-out: CP1 IC50
T5 construct: assay run by ICE Biosciences (Beijing, China)
T5 sequence (P09619 33-1106): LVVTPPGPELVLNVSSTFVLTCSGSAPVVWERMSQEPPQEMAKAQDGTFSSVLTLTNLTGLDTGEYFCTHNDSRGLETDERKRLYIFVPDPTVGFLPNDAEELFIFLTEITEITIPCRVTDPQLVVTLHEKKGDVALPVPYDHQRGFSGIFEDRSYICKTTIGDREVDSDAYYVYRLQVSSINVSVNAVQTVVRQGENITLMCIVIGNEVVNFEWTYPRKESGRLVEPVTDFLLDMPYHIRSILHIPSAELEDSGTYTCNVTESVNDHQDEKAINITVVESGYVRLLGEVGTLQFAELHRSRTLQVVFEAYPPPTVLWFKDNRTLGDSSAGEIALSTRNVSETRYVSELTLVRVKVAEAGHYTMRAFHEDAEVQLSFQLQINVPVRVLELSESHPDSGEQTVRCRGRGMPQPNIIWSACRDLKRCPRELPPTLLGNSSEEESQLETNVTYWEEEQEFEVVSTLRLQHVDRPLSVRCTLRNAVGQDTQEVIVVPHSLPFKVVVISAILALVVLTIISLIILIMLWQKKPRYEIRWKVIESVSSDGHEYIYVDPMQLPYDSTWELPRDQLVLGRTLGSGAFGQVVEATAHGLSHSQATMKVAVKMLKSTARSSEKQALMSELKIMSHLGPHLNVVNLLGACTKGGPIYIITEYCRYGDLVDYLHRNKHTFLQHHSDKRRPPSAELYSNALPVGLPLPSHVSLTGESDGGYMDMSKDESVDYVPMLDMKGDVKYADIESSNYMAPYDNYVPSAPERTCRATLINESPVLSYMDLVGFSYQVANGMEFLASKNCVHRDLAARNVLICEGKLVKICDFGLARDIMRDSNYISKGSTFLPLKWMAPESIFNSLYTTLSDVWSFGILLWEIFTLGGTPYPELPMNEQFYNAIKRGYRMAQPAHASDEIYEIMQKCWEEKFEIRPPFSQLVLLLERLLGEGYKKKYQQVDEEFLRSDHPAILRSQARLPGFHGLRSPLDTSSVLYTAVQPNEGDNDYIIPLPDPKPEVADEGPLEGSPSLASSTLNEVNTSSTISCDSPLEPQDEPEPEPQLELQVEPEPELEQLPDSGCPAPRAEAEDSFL
Experimental: as §1

YES1 = biological target: T6, YES1 (Homo sapiens, UniProt P07947); assay: Kinase selectivity assay; conditions: target YES1; read-out: CP1 IC50
T6 construct: ICE Biosciences (Beijing, China), a contract laboratory that ran the assay
Experimental: as §1

EPHB4 = EPHB4 (Homo sapiens, UniProt P54760); assay: Kinase selectivity assay; conditions: target EPHB4; read-out: CP1 IC50
Experimental: as §1

FLT1 = biological target: T7, FLT1 (Homo sapiens, UniProt P17948); assay: Kinase selectivity assay; conditions: target FLT1; read-out: CP1 IC50
T7 construct: assay run by ICE Biosciences (Beijing, China)
T7 sequence (P17948 27-1338): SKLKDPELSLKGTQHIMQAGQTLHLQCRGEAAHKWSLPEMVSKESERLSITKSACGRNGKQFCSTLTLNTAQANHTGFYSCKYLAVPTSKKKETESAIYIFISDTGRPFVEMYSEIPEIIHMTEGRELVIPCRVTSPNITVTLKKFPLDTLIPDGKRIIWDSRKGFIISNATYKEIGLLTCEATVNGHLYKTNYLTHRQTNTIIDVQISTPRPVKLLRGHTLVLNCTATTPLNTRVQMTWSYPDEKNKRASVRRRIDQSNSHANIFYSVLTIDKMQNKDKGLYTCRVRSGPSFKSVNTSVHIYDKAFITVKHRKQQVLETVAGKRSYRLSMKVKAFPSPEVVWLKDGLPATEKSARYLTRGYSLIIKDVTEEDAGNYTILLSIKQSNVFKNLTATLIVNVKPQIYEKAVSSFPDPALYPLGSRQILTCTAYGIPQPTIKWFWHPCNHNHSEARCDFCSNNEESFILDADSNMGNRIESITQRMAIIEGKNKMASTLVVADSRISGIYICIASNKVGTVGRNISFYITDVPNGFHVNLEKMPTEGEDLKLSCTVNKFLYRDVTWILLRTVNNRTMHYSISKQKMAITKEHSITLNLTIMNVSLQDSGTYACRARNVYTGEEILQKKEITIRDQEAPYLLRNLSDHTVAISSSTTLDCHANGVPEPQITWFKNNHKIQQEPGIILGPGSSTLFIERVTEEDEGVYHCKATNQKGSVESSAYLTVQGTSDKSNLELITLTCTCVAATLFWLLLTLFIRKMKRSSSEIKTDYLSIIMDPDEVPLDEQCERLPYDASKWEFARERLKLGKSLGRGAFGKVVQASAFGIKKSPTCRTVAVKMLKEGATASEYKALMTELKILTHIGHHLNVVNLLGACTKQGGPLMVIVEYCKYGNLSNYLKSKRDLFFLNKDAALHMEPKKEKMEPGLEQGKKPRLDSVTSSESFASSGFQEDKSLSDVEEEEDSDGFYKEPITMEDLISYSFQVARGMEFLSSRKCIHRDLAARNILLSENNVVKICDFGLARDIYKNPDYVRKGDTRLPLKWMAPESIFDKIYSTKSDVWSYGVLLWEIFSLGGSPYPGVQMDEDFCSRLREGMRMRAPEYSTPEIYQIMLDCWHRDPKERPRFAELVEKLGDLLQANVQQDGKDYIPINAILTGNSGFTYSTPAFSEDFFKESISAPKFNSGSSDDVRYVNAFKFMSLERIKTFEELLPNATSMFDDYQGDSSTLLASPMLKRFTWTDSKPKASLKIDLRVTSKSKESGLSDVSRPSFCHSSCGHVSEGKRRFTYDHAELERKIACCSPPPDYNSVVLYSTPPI
Experimental: as §1

HCK = biological target: T8, HCK (Homo sapiens, UniProt P08631); assay: Kinase selectivity assay; conditions: target HCK; read-out: CP1 IC50
T8 construct: ICE Biosciences (Beijing, China), ran the assays
Experimental: as §1

ITK = ITK (Homo sapiens, UniProt Q08881); assay: Kinase selectivity assay; conditions: target ITK; read-out: CP1 IC50
Experimental: as §1

ZAP70 = biological target: T9, ZAP70 (Homo sapiens, UniProt P43403); assay: Kinase selectivity assay; conditions: target ZAP70; read-out: CP1 IC50
T9 construct: ICE Biosciences (Beijing, China), a contract laboratory that ran the assay
Experimental: as §1

ERBB4 = ERBB4 (Homo sapiens, UniProt Q15303); assay: Kinase selectivity assay; conditions: target ERBB4; read-out: CP1 IC50
Experimental: as §1

JAK2 = JAK2 (Homo sapiens, UniProt O60674); assay: Kinase selectivity assay; conditions: target JAK2; read-out: CP1 IC50
Experimental: as §1

FGFR1 = biological target: T10, FGFR1 (Homo sapiens, UniProt P11362); assay: Kinase selectivity assay; conditions: target FGFR1; read-out: CP1 IC50
T10 construct: assay run by ICE Biosciences (Beijing, China)
Experimental: as §1

DDR1 = biological target: T11, DDR1 (Homo sapiens, UniProt Q08345); assay: Kinase selectivity assay; conditions: target DDR1; read-out: CP1 IC50
T11 construct: ICE Biosciences (Beijing, China), ran the assays
T11 sequence (Q08345 19-913): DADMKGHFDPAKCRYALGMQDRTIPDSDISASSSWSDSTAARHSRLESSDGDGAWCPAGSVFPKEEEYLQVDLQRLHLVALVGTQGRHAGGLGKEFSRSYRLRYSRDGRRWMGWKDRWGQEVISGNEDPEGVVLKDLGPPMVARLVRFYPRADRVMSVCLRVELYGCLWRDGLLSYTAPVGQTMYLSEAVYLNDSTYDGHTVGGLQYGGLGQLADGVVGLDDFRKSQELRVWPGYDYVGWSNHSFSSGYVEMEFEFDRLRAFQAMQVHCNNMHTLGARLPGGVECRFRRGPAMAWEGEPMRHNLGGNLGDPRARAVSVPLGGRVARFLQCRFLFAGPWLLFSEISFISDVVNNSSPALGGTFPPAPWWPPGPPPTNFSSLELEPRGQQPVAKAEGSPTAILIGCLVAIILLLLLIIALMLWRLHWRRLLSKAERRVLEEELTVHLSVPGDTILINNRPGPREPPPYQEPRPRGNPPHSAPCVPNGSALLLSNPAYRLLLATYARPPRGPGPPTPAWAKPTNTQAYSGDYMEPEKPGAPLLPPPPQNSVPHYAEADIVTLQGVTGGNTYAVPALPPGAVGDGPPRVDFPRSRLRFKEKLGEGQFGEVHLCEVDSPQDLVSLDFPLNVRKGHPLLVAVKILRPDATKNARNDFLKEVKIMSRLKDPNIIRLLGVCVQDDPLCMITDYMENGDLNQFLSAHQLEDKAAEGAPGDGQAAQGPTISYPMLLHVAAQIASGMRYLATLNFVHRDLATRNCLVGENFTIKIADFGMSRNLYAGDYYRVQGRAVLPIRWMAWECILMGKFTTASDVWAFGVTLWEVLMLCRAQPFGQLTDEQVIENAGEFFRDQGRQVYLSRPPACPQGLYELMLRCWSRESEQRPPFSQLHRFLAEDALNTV
Experimental: as §1

PTK6 = biological target: T12, PTK6 (Homo sapiens, UniProt Q13882); assay: Kinase selectivity assay; conditions: target PTK6; read-out: CP1 IC50
T12 construct: assay run by ICE Biosciences (Beijing, China)
Experimental: as §1

MET = MET (Homo sapiens, UniProt P08581); assay: Kinase selectivity assay; conditions: target MET; read-out: CP1 IC50
Experimental: as §1

MUSK = MUSK (Homo sapiens, UniProt O15146); assay: Kinase selectivity assay; conditions: target MUSK; read-out: CP1 IC50
Experimental: as §1

[1] = biological target: other PRDX family members and a panel of kinases; assay: Kinase selectivity assay (whole panel); conditions: whole panel of Table S1; read-out: IC50 against other PRDX family members and a panel of kinases
Experimental: as §1

PRDX1 [2] = biological target: T13, PRDX1 (Homo sapiens, UniProt Q06830); assay: Kinetics studies of PRDX1 inhibition; conditions: mean ± SD, n = 3
T13 sequence (Q06830 1-199): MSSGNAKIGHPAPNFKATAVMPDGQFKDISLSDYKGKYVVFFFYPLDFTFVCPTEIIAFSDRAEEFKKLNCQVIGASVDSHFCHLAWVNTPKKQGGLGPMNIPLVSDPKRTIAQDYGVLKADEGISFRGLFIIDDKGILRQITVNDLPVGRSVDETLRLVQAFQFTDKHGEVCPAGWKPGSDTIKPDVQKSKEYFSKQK
Experimental: The PRDX1 protein (0.5 nM) was incubated with varying concentrations of the CP1 (0, 0.6, 1.5, and 3.8 nM) at room temperature for 1 h. Subsequently, the Trx/TrxR/NADPH mixture was added and the enzymatic reaction was initiated by the addition of different concentrations of H2O2 (5–1,000 μM). The absorbance changes at 340 nm were monitored in real-time using a microplate reader. Kinetic parameters, including the Michaelis constant (Km), maximum reaction rate (Vmax), and α value, were determined by fitting the data to the Michaelis-Menten equation.

PRDX1 [3] = biological target: T13, PRDX1; assay: PRDX1 inhibition assay; conditions: mean ± SD, n = 3; read-out: PRDX1 (IC50)
Experimental: The cells were purchased from the American Type Culture Collection (ATCC) (Manassas, VA, United States). Cells were cultured in RPMI-1640 medium supplemented with 10% FBS, 50 units/mL penicillin, and 50 μg/mL streptomycin, and maintained at 37°C in a 5% CO2 humidified culture environment. CPs 1-5 were purchased from WuXi AppTec. Human PRDX1 proteins were purchased from Abcam (Cambridge, MA, United States).
First, […] buffer (20 mM HEPES, 5 mM EDTA, 5 μM cofactor A, 2 μM cofactor B, and 300 μM NADPH) was added to a 96-well plate. The test compounds at the designated concentration (0.02–2 nM, with 1.5-fold dilution) were incubated with PRDX1 at 37°C for 25 min, and then the co-incubated mixture was added to each well to a final concentration of 200 nM PRDX1. Finally, 200 μM H2O2 was added to each well to initiate the enzyme reaction cycle. The oxidation of NADPH was determined by the absorption value at 340 nm. Read plate values for 90 s for one cycle and repeat for 20 cycles. The positive control (celastrol, concentrations 0.06–64 μM) was tested in parallel under identical experimental conditions. Three independent replicate experiments were performed.

T1 sequence (P21709 26-976): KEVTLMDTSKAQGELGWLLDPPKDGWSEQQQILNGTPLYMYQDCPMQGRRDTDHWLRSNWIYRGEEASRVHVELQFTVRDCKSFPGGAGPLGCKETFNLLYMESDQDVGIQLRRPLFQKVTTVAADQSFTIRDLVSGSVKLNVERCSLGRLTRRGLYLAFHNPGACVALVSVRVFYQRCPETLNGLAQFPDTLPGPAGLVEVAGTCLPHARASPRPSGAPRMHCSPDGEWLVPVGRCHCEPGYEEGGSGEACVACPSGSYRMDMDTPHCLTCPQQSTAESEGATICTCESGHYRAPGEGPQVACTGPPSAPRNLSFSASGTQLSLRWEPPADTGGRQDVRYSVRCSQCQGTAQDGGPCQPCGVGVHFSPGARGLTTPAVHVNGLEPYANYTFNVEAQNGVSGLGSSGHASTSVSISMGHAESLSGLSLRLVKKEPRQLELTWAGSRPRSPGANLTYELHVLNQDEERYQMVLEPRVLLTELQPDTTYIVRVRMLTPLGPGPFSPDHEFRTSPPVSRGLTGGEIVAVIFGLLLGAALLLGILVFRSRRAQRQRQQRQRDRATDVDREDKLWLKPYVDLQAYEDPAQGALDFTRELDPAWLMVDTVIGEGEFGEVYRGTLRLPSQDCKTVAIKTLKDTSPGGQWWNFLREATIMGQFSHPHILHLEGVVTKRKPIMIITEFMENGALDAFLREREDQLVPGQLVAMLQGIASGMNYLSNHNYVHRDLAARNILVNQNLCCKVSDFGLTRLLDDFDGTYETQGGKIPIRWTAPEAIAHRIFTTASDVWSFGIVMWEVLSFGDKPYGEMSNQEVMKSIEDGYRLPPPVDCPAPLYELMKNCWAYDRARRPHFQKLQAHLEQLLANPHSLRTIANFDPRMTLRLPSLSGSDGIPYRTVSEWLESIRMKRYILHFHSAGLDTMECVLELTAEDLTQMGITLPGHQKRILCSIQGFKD

**Q.** With `CC1=C(CC(=O)/C=C/c2cccc(CO)c2)C(=O)C=C2C1=CC=C1[C@@]2(C)CC[C@@]2(C)C3C[C@](C)(C(=O)CCc4nc(C(O)C(O)O)c(C)nc4C)CC[C@]3(C)CC[C@]12C` (stereo partly drawn) [CP1] as the compound, how does the IC50 (EPHA1) read?
**A.** > 30 µM

**Q.** What about the IC50 (FES) of the same compound?
**A.** > 30 µM

**Q.** What about the IC50 (TYRO3) of the same compound?
**A.** > 30 µM

**Q.** What about the IC50 (MERTK) of the same compound?
**A.** > 30 µM

**Q.** What about the IC50 (FGR) of the same compound?
**A.** > 30 µM

**Q.** And the IC50 (PDGFRB)?
**A.** > 30 µM

**Q.** And the IC50 (YES1)?
**A.** > 30 µM

**Q.** What about the IC50 (EPHB4) of the same compound?
**A.** > 30 µM

**Q.** And the IC50 (FLT1)?
**A.** > 30 µM

**Q.** What about the IC50 (HCK) of the same compound?
**A.** > 30 µM

**Q.** What about the IC50 (ITK) of the same compound?
**A.** > 30 µM

**Q.** And the IC50 (ZAP70)?
**A.** > 30 µM

**Q.** What about the IC50 (ERBB4) of the same compound?
**A.** > 30 µM

**Q.** What about the IC50 (JAK2) of the same compound?
**A.** > 30 µM

**Q.** What about the IC50 (FGFR1) of the same compound?
**A.** > 30 µM

**Q.** And the IC50 (DDR1)?
**A.** > 30 µM

**Q.** And the IC50 (PTK6)?
**A.** > 30 µM

**Q.** What about the IC50 (MET) of the same compound?
**A.** > 30 µM

**Q.** And the IC50 (MUSK)?
**A.** > 30 µM

**Q.** And the IC50 [1]?
**A.** > 30 µM

**Q.** What about the “Vmax” value (PRDX1 [2]; CP1 concentration 0.6 nM) of the same compound?
**A.** 56.2 ± 1.94 M/s

**Q.** What about the “Vmax” value (PRDX1 [2]; CP1 concentration 1.5 nM) of the same compound?
**A.** 40.7 ± 2.42 M/s

**Q.** What about the “Vmax” value (PRDX1 [2]; CP1 concentration 3.8 nM) of the same compound?
**A.** 26.8 ± 1.07 M/s

**Q.** And the IC50 (PRDX1 [3])?
**A.** 0.08 ± 0.01 nM
